In assay [1] the target is T1, FAS (Homo sapiens, UniProt P49327).
T1 construct: Human FAS was purified from cultured ZR-75-1 human breast cancer cells; endogenous in cells
As to the kind of experiment: FAS (IC50) marked (SB). Conditions: value marked (SB), not defined. Format: biochemical.

The test system of assay [2] is fatty acid synthesis pathway activity in MCF-7 human breast cancer cells. The experiment in a line: [14C]acetate incorporation into total lipids. In kind it is cell-based. Conditions: Homo sapiens, MCF7; MCF-7 cells, [14C]acetate into lipids. How it is done: This assay measures the incorporation of [^14C]acetate into total lipids and is a measure of fatty acid synthesis pathway activity in vitro. It is utilized to measure inhibition of fatty acid synthesis in vitro.
MCF-7 human breast cancer cells cultured as above, are plated at 5×10^4 cells per well in 24-well plates. Following overnight incubation, the compounds to be tested, solubilized in DMSO, are added at 5, 10, and 20 μg/ml in triplicate, with lower concentrations tested if necessary. DMSO is added to triplicate wells for a vehicle control. C75 is run at 5 and 10 μg/ml in triplicate as positive controls. After 4 hours of incubation, 0.25 μCi of [^14C]acetate (10 μl volume) is added to each well.
After 2 hours of additional incubation, medium is aspirated from the wells and 800 μl of chloroform:methanol (2:1) and 700 μl of 4 mM MgCl2 is added to each well. Contents of each well are transferred to 1.5 Eppendorf tubes, and spun at full-speed for 2 minutes in a high-speed Eppendorf Microcentrifuge 5415D. After removal of the aqueous (upper) layer, an additional 700 μl of chloroform:methanol (2:1) and 500 μl of 4 mM MgCl2 are added to each tube and then centrifuged for 1 minutes as above. The aqueous layer is removed with a Pasteur pipette and discarded. An additional 400 μl of chloroform:methanol (2:1) and 200 μl of 4 mM MgCl2 are added to each tube, then centrifuged and aqueous layer is discarded. The lower (organic) phase is transferred into a scintillation vial and dried at 40° C. under N2 gas. Once dried, 3 ml of scintillant (APB #NBC5104) is added and vials are counted for ^14C. The Beckman Scintillation counter calculates the average cpm values for triplicates.
The IC50 for the compounds is defined as the concentration of drug leading to a 50% reduction in [^14C]acetate incorporation into lipids compared to controls. This is determined by plotting the average cpm for each inhibitor concentration tested, performing linear regression and computing the best-fit line, r^2 values, and 95% confidence intervals. The average cpm values are computed by the Beckman scintillation counter (Model LS6500) for each compound concentration. Computation of linear regression, best-fit line, r^2, and 95% confidence intervals are calculated using Prism Version 3.0 (Graph Pad Software).

In assay [3] the test system is MCF-7 human breast cancer cells. As to the kind of experiment: XTT cytotoxicity assay (M / MCF7). In kind it is cell-based. Particulars: MCF-7 cells, 72 hours. On the procedure:
The XTT assay is a non-radioactive alternative for the [^51Cr] release cytotoxicity assay. XTT is a tetrazolium salt that is reduced to a formazan dye only by metabolically active, viable cells. The reduction of XTT is measured spectrophotometrically as OD490-OD650. To measure the cytotoxicity of specific compounds against cancer cells, 9×10^3 MCF-7 human breast cancer cells, obtained from the American Type Culture Collection are plated per well in 96 well plates in DMEM medium with 10% fetal bovine serum, insulin, penicillin, and streptomycin. Following overnight culture at 37° C. and 5% CO2, the compounds to be tested, dissolved in DMSO, are added to the wells in 1 μl volume at the following concentrations: 80, 40, 20, 10, 5, 2.5, 1.25, and 0.625 μg/ml in triplicate. Additional concentrations are tested if required. 1 μl of DMSO is added to triplicate wells are the vehicle control. C75 is run at 40, 20, […], and 5 μg/ml in triplicate as positive controls. After 72 hours of incubation, cells are incubated for 4 hours with the XTT reagent as per manufacturer's instructions (Cell Proliferation Kit 11 (XTT) Roche). Plates are read at OD490 and OD650 on a Molecular Devices SpectraMax Plus Spectrophotometer. Three wells containing the XTT reagent without cells serve as the plate blank. XTT data are reported as OD490-OD650. Averages and standard error of the mean are computed using SOFTmax Pro software ([…]). The IC50 for the compounds is defined as the concentration of drug leading to a 50% reduction in OD490-OD650 compared to controls. The OD490-OD650 are computed by the SOFTmax PRO software (Molecular Devices) for each compound concentration. IC50 is calculated by linear regression, plotting the FAS activity as percent of control versus drug concentrations. Linear regression, best-fit line, r^2, and 95% confidence intervals are determined using Prism Version 3.0 (Graph Pad Software).
In general terms: Tetrazolium assays rely on reduction of a dye to a coloured formazan, in cell work by metabolically active cells.

The subject of assay [4] is OV. The experiment in a line: XTT cytotoxicity assay (OV). Format: cell-based. Particulars: (OV) cells. How it is done:
The XTT assay is a non-radioactive alternative for the [^51Cr] release cytotoxicity assay. XTT is a tetrazolium salt that is reduced to a formazan dye only by metabolically active, viable cells. The reduction of XTT is measured spectrophotometrically as OD490-OD650. After 72 hours of incubation, cells are incubated for 4 hours with the XTT reagent as per manufacturer's instructions (Cell Proliferation Kit 11 (XTT) Roche). Plates are read at OD490 and OD650 on a Molecular Devices SpectraMax Plus Spectrophotometer. Three wells containing the XTT reagent without cells serve as the plate blank. XTT data are reported as OD490-OD650. Averages and standard error of the mean are computed using SOFTmax Pro software (Molecular Dynamics). The IC50 for the compounds is defined as the concentration of drug leading to a 50% reduction in OD490-OD650 compared to controls. The OD490-OD650 are computed by the SOFTmax PRO software (Molecular Devices) for each compound concentration. IC50 is calculated by linear regression, plotting the FAS activity as percent of control versus drug concentrations. Linear regression, best-fit line, r^2, and 95% confidence intervals are determined using Prism Version 3.0 (Graph Pad Software).

The test system of assay [5] is MCF-7 human breast cancer cells. As to the kind of experiment: Crystal violet cell growth assay. Format: cell-based. Particulars: MCF7, MCF-7 cells, 72 hours, read-out: Cr. Violet (IC50). On the procedure:
The crystal violet assay measures cell growth but not cytotoxicity. This assay employs crystal violet staining of fixed cells in 96-well plates with subsequent solubilization and measurement of OD490 on a spectrophotometer. The OD490 corresponds to cell growth per unit time measured. Cells are treated with the compounds of interest or vehicle controls and IC50 for each compound is computed.
To measure the cytotoxicity of specific compounds against cancer cells, 5×10^4 MCF-7 human breast cancer cells, obtained from the American Type Culture Collection are plated per well in 24 well plates in DMEM medium with 10% fetal bovine serum, penicillin, and streptomycin. Following overnight culture at 37° C. and 5% CO2, the compounds to be tested, dissolved in DMSO, are added to the wells in 1 μl volume at the following concentrations: 50, 40, 30, 20, and 10 μg/ml in triplicate. Additional concentrations are tested if required. 1 μl of DMSO is added to triplicate wells are the vehicle control. C75 is run at 10, and 5 μg/ml in triplicate as positive controls.
After 72 hours of incubation, cells are stained with 0.5 ml of Crystal Violet stain (0.5% in 25% methanol) in each well. After 10 minutes, wells are rinsed, air dried, and then solubilized with 0.5 ml 10% sodium dodecylsulfate with shaking for 2 hours. Following transfer of 100 μl from each well to a 96-well plate, plates are read at OD490 on a Molecular Devices SpectraMax Plus Spectrophotometer Average OD490 values are computed using SOFTmax Pro Software (Molecular Devices) and IC50 values are determined by linear regression analysis using Prism version 3.02 (Graph Pad Software, San Diego).

Assay [6] can be described thus: Weight loss screen. Format: in vivo, Balb/C mice. Conditions: 60 mg/kg intraperitoneally, day 2. On the procedure:
Balb/C mice (Jackson Labs) are utilized for the initial weight loss screening. Animals are housed in temperature and 12 hour day/night cycle rooms and fed mouse chow and water ad lib. Three mice are utilized for each compound tested with vehicle controls in triplicate per experiment. For the experiments, mice are housed separately for each compound tested three mice to a cage. Compounds are diluted in DMSO at 10 mg/ml and mice are injected intraperitoneally with 60 mg/kg in approximately 100 μl of DMSO or with vehicle alone. Mice are observed and weighed daily; average weights and standard errors are computed with Excel (Microsoft). The experiment continues until treated animals reach their pretreatment weights. Select compounds are tested in animals housed in metabolic cages. Dosing of animals are identical to the screening experiments with three animals to a single metabolic cage. Animal weights, water and food consumption, and urine and feces production are measured daily.

For assay [7], the target named is rat liver acyl-CoA synthetase. Conditions: rat liver enzyme; read-out: 50% inhibition of rat liver acyl-CoA synthetase; cited from earlier work.
Assay [8] has as its system Raji cells. Conditions: cited from earlier work.
Assay [9] has as its target HIV protease (Human immunodeficiency virus type 1 group M subtype B, UniProt P04585). Particulars: cited from earlier work.
The test system of assay [10] is Mycobacterium tuberculosis. Conditions: in vitro; cited from earlier work.

Converted amounts (≈) assume the structure as drawn.

T1 sequence (P49327 whole entry): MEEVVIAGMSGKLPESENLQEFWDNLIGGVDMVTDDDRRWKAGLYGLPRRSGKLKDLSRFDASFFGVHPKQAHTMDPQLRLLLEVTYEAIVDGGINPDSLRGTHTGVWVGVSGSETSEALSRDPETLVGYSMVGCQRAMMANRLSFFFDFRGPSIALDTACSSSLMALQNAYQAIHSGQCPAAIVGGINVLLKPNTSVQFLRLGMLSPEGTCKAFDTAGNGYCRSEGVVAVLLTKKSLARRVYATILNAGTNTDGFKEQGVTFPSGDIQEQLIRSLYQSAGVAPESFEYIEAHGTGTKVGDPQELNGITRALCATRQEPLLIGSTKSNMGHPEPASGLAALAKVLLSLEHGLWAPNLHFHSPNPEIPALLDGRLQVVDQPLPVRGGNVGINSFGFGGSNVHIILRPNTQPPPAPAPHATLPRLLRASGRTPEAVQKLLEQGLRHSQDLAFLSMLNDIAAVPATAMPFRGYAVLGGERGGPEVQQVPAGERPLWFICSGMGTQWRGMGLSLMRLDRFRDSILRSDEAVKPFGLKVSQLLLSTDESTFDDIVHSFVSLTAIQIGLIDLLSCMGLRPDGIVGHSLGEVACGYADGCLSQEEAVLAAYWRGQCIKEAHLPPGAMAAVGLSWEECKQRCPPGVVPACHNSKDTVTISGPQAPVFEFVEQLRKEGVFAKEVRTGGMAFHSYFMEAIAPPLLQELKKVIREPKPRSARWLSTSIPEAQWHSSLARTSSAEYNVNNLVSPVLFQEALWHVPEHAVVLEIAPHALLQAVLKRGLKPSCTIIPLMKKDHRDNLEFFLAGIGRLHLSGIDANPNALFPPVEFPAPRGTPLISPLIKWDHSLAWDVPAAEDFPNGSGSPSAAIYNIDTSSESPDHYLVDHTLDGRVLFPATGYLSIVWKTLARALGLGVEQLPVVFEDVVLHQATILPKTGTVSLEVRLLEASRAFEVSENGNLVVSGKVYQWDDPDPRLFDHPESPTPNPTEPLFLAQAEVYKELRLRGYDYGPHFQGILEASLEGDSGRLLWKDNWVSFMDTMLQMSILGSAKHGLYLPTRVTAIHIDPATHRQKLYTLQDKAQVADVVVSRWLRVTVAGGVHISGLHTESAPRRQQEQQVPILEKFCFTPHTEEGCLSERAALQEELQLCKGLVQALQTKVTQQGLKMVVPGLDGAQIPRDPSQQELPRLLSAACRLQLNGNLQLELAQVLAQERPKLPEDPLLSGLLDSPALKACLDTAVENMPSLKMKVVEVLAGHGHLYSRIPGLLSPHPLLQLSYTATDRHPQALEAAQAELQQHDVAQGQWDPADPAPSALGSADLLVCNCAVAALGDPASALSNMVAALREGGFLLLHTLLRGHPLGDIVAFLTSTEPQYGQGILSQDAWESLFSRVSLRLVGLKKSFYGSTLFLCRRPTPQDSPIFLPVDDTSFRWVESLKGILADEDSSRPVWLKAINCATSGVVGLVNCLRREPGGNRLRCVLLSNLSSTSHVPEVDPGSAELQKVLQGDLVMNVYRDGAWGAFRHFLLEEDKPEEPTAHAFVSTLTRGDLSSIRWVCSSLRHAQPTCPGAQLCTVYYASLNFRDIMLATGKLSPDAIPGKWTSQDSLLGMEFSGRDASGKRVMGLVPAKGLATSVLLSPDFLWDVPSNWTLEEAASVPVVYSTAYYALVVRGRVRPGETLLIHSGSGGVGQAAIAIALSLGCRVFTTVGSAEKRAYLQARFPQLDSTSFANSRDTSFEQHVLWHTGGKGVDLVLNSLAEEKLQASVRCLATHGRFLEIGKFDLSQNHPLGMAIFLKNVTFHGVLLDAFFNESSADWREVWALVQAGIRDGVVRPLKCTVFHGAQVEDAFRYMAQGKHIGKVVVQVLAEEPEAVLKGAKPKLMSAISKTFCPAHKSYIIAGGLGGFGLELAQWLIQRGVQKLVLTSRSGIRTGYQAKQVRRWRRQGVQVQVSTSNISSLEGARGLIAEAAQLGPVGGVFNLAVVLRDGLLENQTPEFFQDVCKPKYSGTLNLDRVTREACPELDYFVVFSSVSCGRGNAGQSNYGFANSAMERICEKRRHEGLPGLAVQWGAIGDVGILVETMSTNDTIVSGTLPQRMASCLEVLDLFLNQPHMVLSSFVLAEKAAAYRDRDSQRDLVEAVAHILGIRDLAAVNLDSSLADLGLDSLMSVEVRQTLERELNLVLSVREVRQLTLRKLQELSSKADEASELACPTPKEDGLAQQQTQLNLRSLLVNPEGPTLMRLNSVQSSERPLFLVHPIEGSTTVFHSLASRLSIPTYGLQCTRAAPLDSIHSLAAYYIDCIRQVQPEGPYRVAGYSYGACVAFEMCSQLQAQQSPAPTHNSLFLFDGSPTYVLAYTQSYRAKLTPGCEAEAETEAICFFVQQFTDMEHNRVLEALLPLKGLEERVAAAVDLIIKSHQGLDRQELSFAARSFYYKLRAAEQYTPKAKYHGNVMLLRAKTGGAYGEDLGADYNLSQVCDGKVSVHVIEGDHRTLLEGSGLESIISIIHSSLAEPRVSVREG

With `CCCCCCCCNC(=O)c1cc(OCC(=O)OC)cs1`, the “FAS (IC50) (SB)” value in [1] is given as “Neg (SB)”. The IC50 in assay [2] was 15.8 µg/mL (≈ 48.3 µM); in assay [3] it was 41.1 ± 2.6 µg/mL (≈ 126 µM); in assay [4], 55 µg/mL (≈ 168 µM); in assay [5] it was 43.4 µg/mL (≈ 133 µM).
Turning to `O=C(NNC(=O)c1cc(O)cs1)c1ccco1`, the IC50 in assay [1] is 135 µM; in assay [3], greater than 80 µg/mL; in [4], greater than 80 µg/mL. Besides, in assay [6], the “Weight Loss” value is 60 mg/kg: 1.5% (day 2).
As to `O=C(NNc1ccc(Cl)cc1)c1cc(O)cs1`, the IC50 in assay [1] was 510 µM; in assay [3] it was 56.9 µg/mL (≈ 212 µM); in assay [4], 30 µg/mL (≈ 112 µM).
As for `CCCC=CCC=CC=CC=NN=NO` [Triacsin C, 1-hydroxy-3-(E, E, E-2′,4′,7′-undecatrienylidine) triazene], the IC50 in [7] was 8.7 µM. Also, the “concentration causing growth inhibition in Raji cells” value in [8] is 1.0 µM.
In the case of `C/C=C/C/C=C/CCC(=O)[C@H]1O[C@H]1C(N)=O` [cerulenin, (2S,3R)-2,3-epoxy-4-oxo-7,10 dodecadienoyl amide], the “concentration for inhibition of viral HIV protease” value in assay [9] is 5 mg/mL. Also, in [10], the “activity against Mycobacterium tuberculosis” value is given as “no activity”.

Source of the values: US20100029752A1, “NOVEL COMPOUNDS, PHARMACEUTICAL COMPOSITIONS CONTAINING SAME, AND METHODS OF USE FOR SAME” (priority 2005, published 2010).
